According to BigSolDB 2.1:

N[C@H](Cc1c[nH]c2ccccc12)C(=O)O
solubility (mole fraction) (in DMF, 283.15 K): 0.00714
solubility (mole fraction) (in DMF, 288.15 K): 0.00749
solubility (mole fraction) (in DMF, 293.15 K): 0.00793
solubility (mole fraction) (in DMF, 298.15 K): 0.00834
solubility (mole fraction) (in DMF, 303.15 K): 0.00872
solubility (mole fraction) (in DMF, 308.15 K): 0.00912
solubility (mole fraction) (in DMF, 313.15 K): 0.00954
solubility (mole fraction) (in DMF, 318.15 K): 0.01
solubility (mole fraction) (in DMF, 323.15 K): 0.0104
solubility (mole fraction) (in DMF, 328.15 K): 0.0108
solubility (mole fraction) (in DMF, 333.15 K): 0.0113
solubility (mole fraction) (in ethanol, 283.15 K): 9.34e-05
solubility (mole fraction) (in ethanol, 288.15 K): 0.000112
solubility (mole fraction) (in ethanol, 293.15 K): 0.000135
solubility (mole fraction) (in ethanol, 298.15 K): 0.000165
solubility (mole fraction) (in ethanol, 303.15 K): 0.000202
solubility (mole fraction) (in ethanol, 308.15 K): 0.000243
solubility (mole fraction) (in ethanol, 313.15 K): 0.00029
solubility (mole fraction) (in ethanol, 318.15 K): 0.000348
solubility (mole fraction) (in ethanol, 323.15 K): 0.00041
solubility (mole fraction) (in ethanol, 328.15 K): 0.000484
solubility (mole fraction) (in ethanol, 333.15 K): 0.000567
solubility (mole fraction) (in isopropanol, 283.15 K): 1.29e-05
solubility (mole fraction) (in isopropanol, 288.15 K): 1.57e-05
solubility (mole fraction) (in isopropanol, 293.15 K): 1.9e-05
solubility (mole fraction) (in isopropanol, 298.15 K): 2.26e-05
solubility (mole fraction) (in isopropanol, 303.15 K): 2.64e-05
solubility (mole fraction) (in isopropanol, 308.15 K): 3.09e-05
solubility (mole fraction) (in isopropanol, 313.15 K): 3.62e-05
solubility (mole fraction) (in isopropanol, 318.15 K): 4.16e-05
solubility (mole fraction) (in isopropanol, 323.15 K): 4.78e-05
solubility (mole fraction) (in isopropanol, 328.15 K): 5.44e-05
solubility (mole fraction) (in isopropanol, 333.15 K): 6.22e-05
solubility (mole fraction) (in methanol, 283.15 K): 0.000179
solubility (mole fraction) (in methanol, 288.15 K): 0.000217
solubility (mole fraction) (in methanol, 293.15 K): 0.000261
solubility (mole fraction) (in methanol, 298.15 K): 0.000303
solubility (mole fraction) (in methanol, 303.15 K): 0.000358
solubility (mole fraction) (in methanol, 308.15 K): 0.000421
solubility (mole fraction) (in methanol, 313.15 K): 0.000489
solubility (mole fraction) (in methanol, 318.15 K): 0.000575
solubility (mole fraction) (in methanol, 323.15 K): 0.000671
solubility (mole fraction) (in methanol, 328.15 K): 0.000779
solubility (mole fraction) (in methanol, 333.15 K): 0.000894
solubility (mole fraction) (in water, 283.15 K): 0.00146
solubility (mole fraction) (in water, 288.15 K): 0.00159
solubility (mole fraction) (in water, 293.15 K): 0.00175
solubility (mole fraction) (in water, 298.15 K): 0.00192
solubility (mole fraction) (in water, 303.15 K): 0.00209
solubility (mole fraction) (in water, 308.15 K): 0.00227
solubility (mole fraction) (in water, 313.15 K): 0.00245
solubility (mole fraction) (in water, 318.15 K): 0.00267
solubility (mole fraction) (in water, 323.15 K): 0.00288
solubility (mole fraction) (in water, 328.15 K): 0.00309
solubility (mole fraction) (in water, 333.15 K): 0.00332
